From patent publication US9695155B2, “Herbicidal substituted pyrimidinyloxy benzene compounds” (E. I. DU PONT DE NEMOURS AND COMPANY, priority 2013, dated 2017)

Columns and labels:
[1] = tested on: ragweed; assay: Test C postemergence; format: in vivo, Ambrosia elatior; conditions: Ambrosia artemisiifolia, post-emergence
Source text: (§1) Seeds of plant species selected from blackgrass (Alopecurus myosuroides), Italian ryegrass (Lolium multiflorum), wheat, winter (winter wheat, Triticum aestivum), galium (catchweed bedstraw, Galium aparine), corn (Zea mays), large (Lg) crabgrass (Digitaria sanguinalis), giant foxtail (Setaria faberii), johnsongrass (Sorghum halepense), lambsquarters (Chenopodium album), morningglory (Ipomoea coccinea), yellow nutsedge (Cyperus esculentus), pigweed (Amaranthus retroflexus), ragweed (common ragweed, Ambrosia elatior), soybean (Glycine max), barnyardgrass (Echinochloa crus-galli), oilseed rape (Brassica napus), waterhemp (common waterhemp, Amaranthus rudis), kochia (Kochia scoparia), wild oat (Avena fatua), surinam grass (Brachiaria decumbens), foxtail, green (green foxtail, Setaria viridis), goosegrass (Eleusine indica), bromegrass, downy (downy bromegrass, Bromus tectorum), nightshade (eastern black nightshade, Solanum ptycanthum), cocklebur (common cocklebur, Xanthium strumarium), cupgrass, woolly (woolly cupgrass, Eriochloa villosa), bermudagrass (Cynodon dactylon), sunflower, (common oilseed sunflower, Helianthus annuus), Russian thistle (Salsola kali), and velvetleaf (Abutilon theophrasti) were planted into a blend of loam soil and sand and treated preemergence with test chemicals formulated in a non-phytotoxic solvent mixture which included a surfactant.
(§2) At the same time, plants selected from these crop and weed species and also barley, winter (winter barley, Hordeum vulgare), windgrass (Apera spica-venti), chickweed (common chickweed, Stellaria media), deadnettle (henbit deadnettle, Lamium amplexicaule), and canarygrass (littleseed canarygrass, Phalaris minor) were planted in pots containing Redi-Earth® planting medium (Scotts Company, 14111 Scottslawn Road, Marysville, Ohio 43041) comprising spaghnum peat moss, vermiculite, wetting agent and starter nutrients and treated with postemergence applications of test chemicals formulated in the same manner. Plants ranged in height from 2 to 18 cm (1- to 4-leaf stage) for postemergence treatments. Treated plants and controls were maintained in a greenhouse for 13 to 15 days, after which time all species were compared to controls and visually evaluated. Plant response ratings, summarized in Table C, are based on a scale of 0 to 100 where 0 is no effect and 100 is complete control. A dash (-) response means no test result.

[2] = tested on: soybean; assay: Test C postemergence; format: in vivo, Glycine max; conditions: Glycine max, post-emergence
Procedure, shortened: (§3)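 Seeds are planted in blended loam soil and sand and treated preemergence, while seedlings in a peat moss/vermiculite medium receive postemergence sprays at 2 to 18 cm height. All plants stay in the greenhouse for 13 to 15 days before visual comparison with controls on a 0–100 scale.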

[3] = tested on: morningglory; assay: Test C preemergence; format: in vivo, Ipomoea coccinea; conditions: Ipomoea, pre-emergence
Procedure, shortened: as §3

[4] = tested on: pigweed; assay: Test A postemergence; format: in vivo, Amaranthus retroflexus; conditions: Amaranthus retroflexus, post-emergence
Procedure, shortened: (§4)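 Visual injury scored 0–100 (100 = complete control) against untreated controls about 10 days after treatment in a greenhouse. Test chemicals, formulated with surfactant in non-phytotoxic solvent, were sprayed on soil preemergence or on 2-10 cm, one- to two-leaf plants postemergence.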

[5] = tested on: morningglory; assay: Test C postemergence; format: in vivo, Ipomoea coccinea; conditions: Ipomoea, post-emergence
Procedure, shortened: as §3

[6] = tested on: ragweed; assay: Test C preemergence; format: in vivo, Ambrosia elatior; conditions: Ambrosia artemisiifolia, pre-emergence
Procedure, shortened: as §3

[7] = tested on: large (Lg) crabgrass; assay: Test C postemergence; format: in vivo, Digitaria sanguinalis; conditions: Digitaria sanguinalis, post-emergence
Source text: as §1, §2

[8] = tested on: corn; assay: Test A postemergence; format: in vivo, Zea mays; conditions: Zea mays, post-emergence, 240 h
Procedure, shortened: as §4

[9] = tested on: lambsquarters; assay: Test C preemergence; format: in vivo, Chenopodium album; conditions: Chenopodium album, pre-emergence, preemergence, scale 0 (no effect) to 100 (complete control), read-out: Lambsquarters plant response rating
Procedure, shortened: as §3

For Clc1cnc(Oc2ccccc2-n2cc(Br)cn2)nc1 [Compound 7, 2-[2-(4-bromo-1H-pyrazol-1-yl)phenoxy]-5-chloropyrimidine], the pest or weed control at 125 g/ha ([1]; 125 g ai/ha, postemergence, read-out: Plant response rating (0 to 100), Ragweed) was 55%, the pest or weed control at 250 g/ha ([1]; 250 g ai/ha, postemergence, read-out: Plant response rating (0 to 100), Ragweed) was 60% and the pest or weed control at 31 g/ha ([1]; Postemergence, 31 g ai/ha, scale 0 to 100 (0 no effect, 100 complete control), 13 to 15 days, read-out: Plant response rating, Ragweed) was 50%. The pest or weed control at 62 g/ha ([1]; Postemergence, 62 g ai/ha, scale 0 to 100 (0 no effect, 100 complete control), read-out: Plant response rating, Ragweed) was 55%, the Soybean plant response rating (crop injury, 0-100 scale) at 125 g/ha ([2]; 125 g ai/ha, postemergence, read-out: Plant response rating (0 to 100), Soybean) was 98% and the Soybean plant response rating (crop injury, 0-100 scale) at 250 g/ha ([2]; 250 g ai/ha, postemergence) was 98%. The Soybean plant response rating (crop injury, 0-100 scale) at 31 g/ha ([2]; Postemergence, 31 g ai/ha, scale 0 to 100 (0 no effect, 100 complete control), 13 to 15 days) was 85%, the Soybean plant response rating (crop injury, 0-100 scale) at 62 g/ha ([2]; Postemergence, 62 g ai/ha, scale 0 to 100 (0 no effect, 100 complete control)) was 98% and the pest or weed control at 62 g/ha ([3]; 62 g ai/ha, preemergence, scale 0 (no effect) to 100 (complete control), read-out: Morningglory plant response rating) was 0%. For the same compound, the pest or weed control at 125 g/ha ([3]; 125 g ai/ha, preemergence, scale 0 (no effect) to 100 (complete control), read-out: Morningglory plant response rating) was 10%, the pest or weed control at 250 g/ha ([3]; 250 g ai/ha, preemergence, scale 0 (no effect) to 100 (complete control), read-out: Morningglory plant response rating) was 40% and the pest or weed control at 31 g/ha ([3]; Preemergence, 31 g ai/ha, scale 0 to 100, 0 no effect, 100 complete control, read-out: Plant response rating, Morningglory) was 0%. It also gave a pest or weed control at 125 g/ha ([4]; 125 g ai/ha, 0 to 100 scale where 0 is no effect and 100 is complete control, read-out: Plant response rating, Pigweed) of 100%, a pest or weed control at 500 g/ha ([4]; 240 h, 500 g ai/ha, 0 to 100 scale, 0 no effect, 100 complete control, read-out: Plant response rating Pigweed) of 100% and a pest or weed control at 125 g/ha ([5]; 125 g ai/ha, postemergence, read-out: Plant response rating (0 to 100), Morningglory) of 95%. It also gave a pest or weed control at 31 g/ha ([5]; Postemergence, 31 g ai/ha, scale 0 to 100 (0 no effect, 100 complete control), 13 to 15 days, read-out: Plant response rating, Morningglory) of 75%, a pest or weed control at 62 g/ha ([5]; Postemergence, 62 g ai/ha, scale 0 to 100 (0 no effect, 100 complete control), read-out: Plant response rating, Morningglory) of 80% and a pest or weed control at 62 g/ha ([6]; 62 g ai/ha, preemergence, scale 0 (no effect) to 100 (complete control), read-out: Ragweed plant response rating) of 0%. It also gave a pest or weed control at 125 g/ha ([6]; 125 g ai/ha, preemergence, scale 0 (no effect) to 100 (complete control), read-out: Ragweed plant response rating) of 5%, a pest or weed control at 250 g/ha ([6]; 250 g ai/ha, preemergence, scale 0 (no effect) to 100 (complete control), read-out: Ragweed plant response rating) of 40% and a pest or weed control at 31 g/ha ([6]; Preemergence, 31 g ai/ha, scale 0 to 100, 0 no effect, 100 complete control, read-out: Plant response rating, Ragweed) of 0%. For the same compound, the pest or weed control at 125 g/ha ([7]; 125 g ai/ha, postemergence, read-out: Plant response rating (0 to 100), Crabgrass, Large) was 10%, the pest or weed control at 250 g/ha ([7]; 250 g ai/ha, postemergence, read-out: Plant response rating (0 to 100), Crabgrass, Large) was 20% and the pest or weed control at 31 g/ha ([7]; Postemergence, 31 g ai/ha, scale 0 to 100 (0 no effect, 100 complete control), 13 to 15 days, read-out: Plant response rating, Crabgrass, Large) was 5%. It also gave a pest or weed control at 62 g/ha ([7]; Postemergence, 62 g ai/ha, scale 0 to 100 (0 no effect, 100 complete control), read-out: Plant response rating, Crabgrass, Large) of 5%, a Corn plant response rating (crop injury, 0 = no effect, 100 = complete kill) at 125 g/ha ([8]; 125 g ai/ha, 0 to 100 scale where 0 is no effect and 100 is complete control) of 30% and a plant injury at 500 g/ha ([8]; 500 g ai/ha, 0 to 100 scale, 0 no effect, 100 complete control, read-out: Plant response rating Corn) of 50%. For the same compound, the pest or weed control at 62 g/ha ([9]; 62 g ai/ha) was 80% and the pest or weed control at 125 g/ha ([9]; 125 g ai/ha) was 85%.
